Patent US11911353B2, “Fatty acid synthase inhibitor and application thereof” (Jiangnan University, priority 2019, dated 2024)

What was measured:
preadipocytes OP9 = assay: Lipid droplet formation in preadipocytes OP9, oil red O staining (FIG. 6); assay type: cell-based; conditions: 20 μM, differentiation with 1 μM rosiglitazone, OD510
Experimental: The effect of the compound shown as the formula I-1 on preadipocytes OP9 is detected: • (1) The cancer cells in the logarithmic growth phase are taken and inoculated into a 6 cm culture dish with the inoculation density of 2*10^6 cells, and incubated under 5% CO2 at 37° C. • (2) After cell adherence, 6 ml of 10% FBS culture medium containing 20 μM of the compound shown as the formula I is added into each dish with the culture medium as a negative control; cerulenin as a positive control; and 1 μM rosiglitazone (RSG) is used for differentiation. • (3) To observe the formation of lipid droplets, cells were incubated with 4% paraformaldehyde solution for 30 min at room temperature, washed with phosphate-buffered saline (PBS), and then stained with 0.5% oil red O in 60% isopropanol. • (4) After washing with distilled water, the stained cells were observed through a microscope, and then oil red O was extracted with isopropanol for quantification. This quantification was performed by measuring the absorbance of isopropanol solutions of oil red O at 510 nm.

nematodes = assay: Accumulation of lipid droplets in nematodes, oil red staining (FIG. 7); assay type: in vivo; conditions: 10 μM, 9 days
Experimental: Nematodes are taken and resuspended in an M9 buffer, 3 ml of nematode suspension is added into each test tube, the compound shown as the formula I is added into an experimental group to make the final concentration reach 10 μM, a group with no addition of the compound shown as the formula I is used as a control, the suspension is subjected to shaking culture on a shaker at 200 rpm/min, oil red staining is carried out after 9 days, the suspension is placed on a glass slide for observing the lipid droplet condition under a microscope.

transplanted tumors PC3 = assay: Growth of transplanted tumors PC3 in nude mice (FIG. 8); assay type: in vivo; conditions: 5 mg/kg intraperitoneally every 2 days, four weeks
Excerpt: […]

[1] = system: tumor cells 22RV1, PC-3, HT-29, Hela, Hep G2, CaCo-2 and HCT116; assay: MTT proliferation of various tumor cells at single concentration (FIG. 2); assay type: cell-based; conditions: 10 μM, 72 hours, 7 different tumor cells
Excerpt: Cell survival rate=(OD570−OD630)/(OD570 negative control−OD630 negative control); wherein, OD570: OD570 value of each treatment group; OD630: OD630 value of each treatment group; OD570 control: OD570 value of the negative control group; OD630 control: OD630 value of the negative control group.

[2] = molecular target: T1, fatty acid synthase (FASN) in colon cancer cells HCT116 (Homo sapiens, UniProt P49327); assay: FASN enzyme activity detection in treated HCT116 cells (NADPH absorbance at 340 nm); assay type: cell-based; conditions: HCT-116, 4 hours of incubation, read-out: FASN enzyme activity inhibition rate (%)
T1 construct: endogenous in cells; host or cells: HCT116 colon cancer cells
T1 sequence (P49327 whole entry): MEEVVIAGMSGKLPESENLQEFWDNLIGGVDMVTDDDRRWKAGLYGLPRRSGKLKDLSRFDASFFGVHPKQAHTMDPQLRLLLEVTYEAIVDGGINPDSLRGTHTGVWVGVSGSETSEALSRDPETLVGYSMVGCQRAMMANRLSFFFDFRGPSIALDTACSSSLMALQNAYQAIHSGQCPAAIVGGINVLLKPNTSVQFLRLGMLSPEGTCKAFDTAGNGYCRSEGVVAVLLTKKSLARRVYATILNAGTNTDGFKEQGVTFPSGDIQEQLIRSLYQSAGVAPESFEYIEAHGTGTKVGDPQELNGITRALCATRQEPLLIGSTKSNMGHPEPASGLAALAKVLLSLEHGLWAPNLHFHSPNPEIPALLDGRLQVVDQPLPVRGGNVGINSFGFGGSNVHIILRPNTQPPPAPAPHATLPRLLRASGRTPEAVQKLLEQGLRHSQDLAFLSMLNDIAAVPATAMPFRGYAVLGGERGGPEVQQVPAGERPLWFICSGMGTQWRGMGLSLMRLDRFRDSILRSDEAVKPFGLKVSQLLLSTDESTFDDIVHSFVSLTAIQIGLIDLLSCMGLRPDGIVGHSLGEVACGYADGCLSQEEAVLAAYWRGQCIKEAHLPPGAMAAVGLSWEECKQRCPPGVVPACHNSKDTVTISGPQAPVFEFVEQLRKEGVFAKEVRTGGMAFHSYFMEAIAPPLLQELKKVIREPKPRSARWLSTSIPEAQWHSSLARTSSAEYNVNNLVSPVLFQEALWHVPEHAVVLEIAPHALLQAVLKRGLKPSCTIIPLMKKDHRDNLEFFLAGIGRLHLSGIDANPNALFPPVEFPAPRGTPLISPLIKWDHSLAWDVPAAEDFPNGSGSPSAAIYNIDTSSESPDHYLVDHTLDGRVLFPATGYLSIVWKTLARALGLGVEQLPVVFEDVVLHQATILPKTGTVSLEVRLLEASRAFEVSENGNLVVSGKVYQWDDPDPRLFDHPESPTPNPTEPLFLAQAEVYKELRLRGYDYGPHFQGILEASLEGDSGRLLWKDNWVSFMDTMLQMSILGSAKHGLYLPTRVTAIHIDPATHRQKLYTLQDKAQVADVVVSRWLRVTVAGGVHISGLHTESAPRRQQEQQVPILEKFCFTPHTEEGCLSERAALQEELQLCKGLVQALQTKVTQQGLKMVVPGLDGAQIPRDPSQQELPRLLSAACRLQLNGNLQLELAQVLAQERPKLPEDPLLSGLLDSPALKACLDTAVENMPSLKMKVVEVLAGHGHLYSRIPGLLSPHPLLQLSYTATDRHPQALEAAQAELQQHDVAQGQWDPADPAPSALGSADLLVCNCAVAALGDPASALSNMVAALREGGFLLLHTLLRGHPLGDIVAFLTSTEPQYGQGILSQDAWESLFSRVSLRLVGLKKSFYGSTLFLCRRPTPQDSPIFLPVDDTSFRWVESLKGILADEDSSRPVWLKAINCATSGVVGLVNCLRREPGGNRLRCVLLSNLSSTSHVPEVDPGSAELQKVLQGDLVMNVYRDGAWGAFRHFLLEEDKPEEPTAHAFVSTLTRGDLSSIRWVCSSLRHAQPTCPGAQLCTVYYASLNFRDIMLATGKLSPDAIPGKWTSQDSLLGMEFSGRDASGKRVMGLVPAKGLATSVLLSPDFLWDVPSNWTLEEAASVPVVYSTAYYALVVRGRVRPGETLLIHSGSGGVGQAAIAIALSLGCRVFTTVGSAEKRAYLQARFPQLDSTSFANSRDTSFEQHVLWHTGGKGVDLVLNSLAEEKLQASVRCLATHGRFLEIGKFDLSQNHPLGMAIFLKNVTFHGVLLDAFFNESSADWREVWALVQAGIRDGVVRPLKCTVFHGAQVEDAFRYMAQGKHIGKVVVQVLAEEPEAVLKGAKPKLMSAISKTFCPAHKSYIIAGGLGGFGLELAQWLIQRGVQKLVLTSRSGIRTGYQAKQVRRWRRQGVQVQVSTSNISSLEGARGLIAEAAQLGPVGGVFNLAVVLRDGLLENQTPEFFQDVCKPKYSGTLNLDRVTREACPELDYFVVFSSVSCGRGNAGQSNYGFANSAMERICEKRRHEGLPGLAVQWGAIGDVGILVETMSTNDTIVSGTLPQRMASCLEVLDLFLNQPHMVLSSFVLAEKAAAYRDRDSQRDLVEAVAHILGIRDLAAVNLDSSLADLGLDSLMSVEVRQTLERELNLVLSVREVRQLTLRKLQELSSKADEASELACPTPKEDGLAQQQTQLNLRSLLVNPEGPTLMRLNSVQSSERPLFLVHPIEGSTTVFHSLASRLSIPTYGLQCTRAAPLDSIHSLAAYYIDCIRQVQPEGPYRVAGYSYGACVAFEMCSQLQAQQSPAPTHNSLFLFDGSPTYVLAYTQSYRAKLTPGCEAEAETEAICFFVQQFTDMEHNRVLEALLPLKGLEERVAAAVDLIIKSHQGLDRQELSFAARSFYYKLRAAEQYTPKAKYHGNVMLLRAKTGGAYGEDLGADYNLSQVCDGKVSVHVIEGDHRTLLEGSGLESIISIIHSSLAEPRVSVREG

[3] = system: prostate cancer cells PC3; assay: Cell division of PC3 cells, CFSE flow cytometry (FIG. 4); assay type: cell-based; conditions: 10 μM, 24 hours, versus cells without compound
Excerpt: […]

inhibition at 20 µM [2]: 58.6%
Compound: O=C(CCCC(=O)Nc1ccc(Br)cc1)N/N=C/c1cc(Br)ccc1O [Compound I-1]
number of lipid droplets in cells OP9 (preadipocytes OP9): reduced significantly
accumulation of lipid droplets in nematodes (nematodes): significantly lower than that of the control group
HE staining of transplanted tumor tissue (transplanted tumors PC3; FIG. 8B): dark dotted area is significantly reduced
tumor mass of mice (transplanted tumors PC3; PC3 transplanted tumors): significantly lower than that of the control group
effect on proliferation of tumor cells [1]: significantly improved inhibitory effect on tumor proliferation
split peak number (cell division) [3]: significantly reduced
